Measured values published in patent publication US6914045B2, “Glycopeptide antibiotics” (Wyeth Holdings Corporation, priority 2001, dated 2005).
Converted amounts (≈) assume the structure as drawn.

Legend:
Assay in all cases: in vitro antibacterial evaluation, MIC by broth dilution
Assay type in all cases: cell-based
Enterococcus sp. = conditions: broth dilution, 18 hours at 35° C.
Procedure, shortened: (§1)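 Inoculum 5×10^5 CFU/mL; concentrations 64 to 0.06 μg/mL; MIC defined as lowest inhibitory level. Conducted by broth dilution under NCCLS guidelines.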

Staphylococcus sp. = conditions: broth dilution, 18 hours at 35° C.
Procedure, shortened: as §1

Streptococcus sp. = conditions: broth dilution, 18 hours at 35° C.
Procedure, shortened: as §1

Escherichia coli = conditions: 18 hours at 35° C.

CC(c1ccccc1)C1NC(=O)CNC(=O)C(CO)NC(=O)C(CC2CNC(=N)N2C2OC(CO)C(O)C(O)C2O)NC(=O)C(CC2CNC(=N)N2)NC(=O)C(Cc2ccc(OC3OC(CO)C(OC4OC(COCc5ccc(OCc6ccccc6)cc5)C(O)C(O)C4O)C(O)C3O)cc2)NC1=O (stereo not shown) [Example 246]
MIC Enterococcus avium (GC 4558) (Enterococcus sp.): 8 µg/mL (≈ 5.48 µM)
MIC Enterococcus faecalis (ATCC 29212) (Enterococcus sp.): 16 µg/mL (≈ 11 µM)
MIC Enterococcus faecalis (GC 2242) (Enterococcus sp.): 16 µg/mL (≈ 11 µM)
MIC Enterococcus faecalis (GC 2691) (Enterococcus sp.): 32 µg/mL (≈ 21.9 µM)
MIC Enterococcus faecalis (GC 3059) (Enterococcus sp.): 32 µg/mL (≈ 21.9 µM)
MIC Enterococcus faecalis (GC 4552) (Enterococcus sp.): 16 µg/mL (≈ 11 µM)
MIC Enterococcus faecalis (GC 4553) (Enterococcus sp.): 8 µg/mL (≈ 5.48 µM)
MIC Enterococcus faecalis (GC 4554) (Enterococcus sp.): 32 µg/mL (≈ 21.9 µM)
MIC Enterococcus faecalis (GC 6189) (Enterococcus sp.): 16 µg/mL (≈ 11 µM)
MIC Enterococcus faecium (GC 2243) (Enterococcus sp.): 16 µg/mL (≈ 11 µM)
MIC Enterococcus faecium (GC 4556) (Enterococcus sp.): 16 µg/mL (≈ 11 µM)
MIC Enterococcus faecium (GC 4557) (Enterococcus sp.): 4 µg/mL (≈ 2.74 µM)
MIC Enterococcus faecalis (ATCC 29212) (Enterococcus sp.; strain ATCC 29212): 16 µg/mL (≈ 11 µM)
MIC Enterococcus faecium (GC 2243) (Enterococcus sp.; strain GC 2243): 16 µg/mL (≈ 11 µM)
MIC Enterococcus faecalis (GC 4552) (Enterococcus sp.; strain GC 4552): 16 µg/mL (≈ 11 µM)
MIC Enterococcus faecalis (GC 4553) (Enterococcus sp.; strain GC 4553): 8 µg/mL (≈ 5.48 µM)
MIC Enterococcus faecalis (GC 4554) (Enterococcus sp.; strain GC 4554): 32 µg/mL (≈ 21.9 µM)
MIC Enterococcus faecium (GC 4556) (Enterococcus sp.; strain GC 4556): 16 µg/mL (≈ 11 µM)
MIC Enterococcus faecium (GC 4557) (Enterococcus sp.; strain GC 4557): 4 µg/mL (≈ 2.74 µM)
MIC Enterococcus avium (GC 4558) (Enterococcus sp.; strain GC 4558): 8 µg/mL (≈ 5.48 µM)
MIC Enterococcus faecalis (GC 6189) (Enterococcus sp.; strain GC 6189): 16 µg/mL (≈ 11 µM)
MIC Enterococcus faecalis (GC 2242) (Enterococcus sp.; inoculum 5×10^5 CFU/mL, strain GC 2242): 16 µg/mL (≈ 11 µM)
MIC Enterococcus faecalis (GC 2691) (Enterococcus sp.; inoculum 5×10^5 CFU/mL, strain GC 2691): 32 µg/mL (≈ 21.9 µM)
MIC Enterococcus faecalis (GC 3059) (Enterococcus sp.; inoculum 5×10^5 CFU/mL, strain GC 3059): 32 µg/mL (≈ 21.9 µM)
MIC Coagulase Negative Staphylococcus (GC 4547) (Staphylococcus sp.): 4 µg/mL (≈ 2.74 µM)
MIC Coagulase Negative Staphylococcus (GC 4548) (Staphylococcus sp.): 4 µg/mL (≈ 2.74 µM)
MIC Coagulase Negative Staphylococcus (GC 4549) (Staphylococcus sp.): 4 µg/mL (≈ 2.74 µM)
MIC Coagulase Negative Staphylococcus (GC 4551) (Staphylococcus sp.): 8 µg/mL (≈ 5.48 µM)
MIC Coagulase Negative Staphylococcus (GC 6257) (Staphylococcus sp.): 2 µg/mL (≈ 1.37 µM)
MIC Staphylococcus aureus (ATCC 29213) (Staphylococcus sp.): 4 µg/mL (≈ 2.74 µM)
MIC Staphylococcus aureus (GC 1131) (Staphylococcus sp.): 8 µg/mL (≈ 5.48 µM)
MIC Staphylococcus aureus (GC 3051) (Staphylococcus sp.): 4 µg/mL (≈ 2.74 µM)
MIC Staphylococcus aureus (GC 3053) (Staphylococcus sp.): 4 µg/mL (≈ 2.74 µM)
MIC Staphylococcus aureus (GC 4541) (Staphylococcus sp.): 4 µg/mL (≈ 2.74 µM)
MIC Staphylococcus aureus (GC 4542) (Staphylococcus sp.): 4 µg/mL (≈ 2.74 µM)
MIC Staphylococcus aureus (GC 4544) (Staphylococcus sp.): 8 µg/mL (≈ 5.48 µM)
MIC Staphylococcus aureus (GC 4545) (Staphylococcus sp.): 4 µg/mL (≈ 2.74 µM)
MIC Staphylococcus aureus-SMITH (GC 4543) (Staphylococcus sp.): 4 µg/mL (≈ 2.74 µM)
MIC Staphylococcus haemolyticus (GC 4546) (Staphylococcus sp.): 4 µg/mL (≈ 2.74 µM)
MIC Staphylococcus aureus (ATCC 29213) (Staphylococcus sp.; strain ATCC 29213): 4 µg/mL (≈ 2.74 µM)
MIC Staphylococcus aureus (GC 1131) (Staphylococcus sp.; strain GC 1131): 8 µg/mL (≈ 5.48 µM)
MIC Staphylococcus aureus (GC 3051) (Staphylococcus sp.; strain GC 3051): 4 µg/mL (≈ 2.74 µM)
MIC Staphylococcus aureus (GC 3053) (Staphylococcus sp.; strain GC 3053): 4 µg/mL (≈ 2.74 µM)
MIC Staphylococcus aureus (GC 4541) (Staphylococcus sp.; strain GC 4541): 4 µg/mL (≈ 2.74 µM)
MIC Staphylococcus aureus (GC 4542) (Staphylococcus sp.; strain GC 4542): 4 µg/mL (≈ 2.74 µM)
MIC Staphylococcus aureus-SMITH (GC 4543) (Staphylococcus sp.; strain GC 4543): 4 µg/mL (≈ 2.74 µM)
MIC Staphylococcus aureus (GC 4544) (Staphylococcus sp.; strain GC 4544): 8 µg/mL (≈ 5.48 µM)
MIC Staphylococcus aureus (GC 4545) (Staphylococcus sp.; strain GC 4545): 4 µg/mL (≈ 2.74 µM)
MIC Staphylococcus haemolyticus (GC 4546) (Staphylococcus sp.; strain GC 4546): 4 µg/mL (≈ 2.74 µM)
MIC Coagulase Negative Staphylococcus (GC 4547) (Staphylococcus sp.; strain GC 4547): 4 µg/mL (≈ 2.74 µM)
MIC Coagulase Negative Staphylococcus (GC 4548) (Staphylococcus sp.; strain GC 4548): 4 µg/mL (≈ 2.74 µM)
MIC Coagulase Negative Staphylococcus (GC 4549) (Staphylococcus sp.; strain GC 4549): 4 µg/mL (≈ 2.74 µM)
MIC Coagulase Negative Staphylococcus (GC 4551) (Staphylococcus sp.; strain GC 4551): 8 µg/mL (≈ 5.48 µM)
MIC Coagulase Negative Staphylococcus (GC 6257) (Staphylococcus sp.; strain GC 6257): 2 µg/mL (≈ 1.37 µM)
MIC Streptococcus agalactiae (GC 4564) (Streptococcus sp.): 2 µg/mL (≈ 1.37 µM)
MIC Streptococcus pneumoniae (ATCC 6301) (Streptococcus sp.): 2 µg/mL (≈ 1.37 µM)
MIC Streptococcus pneumoniae (GC 1894) (Streptococcus sp.): 0.5 µg/mL (≈ 0.343 µM)
MIC Streptococcus pneumoniae (GC 4565) (Streptococcus sp.): 2 µg/mL (≈ 1.37 µM)
MIC Streptococcus pyogenes (GC 4563) (Streptococcus sp.): 4 µg/mL (≈ 2.74 µM)
MIC Streptococcus pneumoniae (ATCC 6301) (Streptococcus sp.; inoculum 5×10^5 CFU/mL, strain ATCC 6301): 2 µg/mL (≈ 1.37 µM)
MIC Streptococcus pneumoniae (GC 1894) (Streptococcus sp.; inoculum 5×10^5 CFU/mL, strain GC 1894): 0.5 µg/mL (≈ 0.343 µM)
MIC Streptococcus pyogenes (GC 4563) (Streptococcus sp.; inoculum 5×10^5 CFU/mL, strain GC 4563): 4 µg/mL (≈ 2.74 µM)
MIC Streptococcus agalactiae (GC 4564) (Streptococcus sp.; inoculum 5×10^5 CFU/mL, strain GC 4564): 2 µg/mL (≈ 1.37 µM)
MIC Streptococcus pneumoniae (GC 4565) (Streptococcus sp.; inoculum 5×10^5 CFU/mL, strain GC 4565): 2 µg/mL (≈ 1.37 µM)
MIC Escherichia coli (ATCC 25922) (Escherichia coli): 128 µg/mL (≈ 87.7 µM)
MIC Escherichia coli (GC 4559) (Escherichia coli): 64 µg/mL (≈ 43.8 µM)
MIC Escherichia coli (GC 4560) (Escherichia coli): 4 µg/mL (≈ 2.74 µM)
